Experimental data taken from US9932637B2, “Genetic polymorphisms associated with cardiovascular disorders and drug response, methods of detection and uses thereof” (CELERA CORPORATION, priority 2003, dated 2018).

Tested on: patients with prior myocardial infarction (CARE study)
Test: CARE: association of SNPs with pravastatin treatment in cardiovascular events prevention (logistic regression, odds ratio pravastatin vs placebo by genotype; Table 8)
Type: in vivo, human
Conditions: for Definite Nonfatal MI, n/total (%) / Fatal/Nonfatal MI (def & prob), n/total (%) / MI (Fatal/Nonfatal), n/total (%) / Nonfatal MI (def & prob), n/total (%): BCL2A1 hCV7509650, All Patients
Description: In order to identify genetic markers associated with acute coronary events (e.g. MI, stroke, unstable angina, congestive heart failure, etc.) or response to statin treatment for the prevention of coronary events, samples from the Cholesterol and Recurrent Events (CARE) study (a randomized multicentral double-blinded trial on secondary prevention of acute coronary events with pravastatin) (Sacks et al., 1991, Am. J. Cardiol. 68: 1436-1446) were genotyped. A well-documented myocardial infarction (MI) was one of the enrollment criteria for entry into the CARE study. Patients were enrolled in the CARE trial from 80 participating study centers. […] Patients were randomized to receive either 40 mg of pravastatin once daily or a matching placebo. The primary endpoint of the trial was death from coronary heart disease and the median duration of follow-up was 5.0 years (range, 4.0 to 6.2 years). […] Secondary endpoints of other related cardiovascular or metabolic disease events, and changes in clinical variables were also recorded in pravastatin-treated and placebo groups. All individuals included in the study had signed a written informed consent form and the study protocol was approved by the respective Institutional Review Boards (IRBs).
For genotyping SNPs in CARE patient samples, DNA was extracted from blood samples using conventional DNA extraction methods such as the QIA-amp kit from Qiagen. Genotypes were obtained on an ABI PRISM® 7900HT Sequence Detection PCR system (Applied Biosystems, Foster City, Calif.) by kinetic allele-specific PCR, similar to the method described by Germer et al. (Germer S., Holland M. J., Higuchi R. 2000, Genome Res. 10: 258-266).
Statistical analysis for association of SNPs with pravastatin treatment in cardiovascular events prevention (Table 8) was carried out using an overall logistic regression model that included an intercept, a parameter for the effect of a genotype containing two rare alleles versus a genotype containing no rare alleles, a parameter for the effect of a genotype containing one rare allele versus a genotype containing no rare alleles, a parameter for the effect of use of pravastatin versus the use of placebo, and parameters for the interaction effects between SNP genotypes and pravastatin use. The test of the overall model is a chi-square test with two degrees of freedom for analyses containing all three genotypes, and one degree of freedom for analyses containing two genotypes.
Effect sizes were estimated through odds ratios (pravastatin group versus placebo) for carriers of each genotype (groups of 0, 1, and 2 minor allele carriers). The effect was considered to be significant if p-value for testing whether any of the interactions between SNP genotypes and pravastatin use were <0.05. […] Odds ratios less than one indicate that the specific SNP allele has a protective effect and odds ratios greater than one indicate that the specific SNP allele has an adverse effect.

[1] = CCL4 hCV12120554, All Patients, 0 Rare Alleles, Prava arm
[2] = CCL4 hCV12120554, All Patients, 1 Rare Allele, Prava arm

SMILES: CC[C@H](C)C(=O)O[C@H]1C[C@H](O)C=C2C=C[C@H](C)[C@H](CC[C@@H](O)C[C@@H](O)CC(=O)O)[C@H]21 [pravastatin]
- Odds ratio pravastatin vs placebo (APOE hCV905013, All Patients, Nonfatal MI (Probable/Definite), 1 rare allele): 0.91
- Odds ratio pravastatin vs placebo (APOE hCV905013, All Patients, Nonfatal MI (Probable/Definite), 2 rare alleles): 0.49
- Definite Nonfatal MI, n/total (%) (0 Rare Alleles, Prava arm): (6.3%)
- Fatal/Nonfatal MI (def & prob), n/total (%) (0 Rare Alleles, Prava arm): (8.7%)
- MI (Fatal/Nonfatal), n/total (%) (0 Rare Alleles, Prava arm): (9.1%)
- Nonfatal MI (def & prob), n/total (%) (0 Rare Alleles, Prava arm): (8.1%)
- Definite Nonfatal MI, n/total (%) (1 Rare Allele, Prava arm): (7.9%)
- Fatal/Nonfatal MI (def & prob), n/total (%) (1 Rare Allele, Prava arm): (11.4%)
- MI (Fatal/Nonfatal), n/total (%) (1 Rare Allele, Prava arm): (11.4%)
- Nonfatal MI (def & prob), n/total (%) (1 Rare Allele, Prava arm): (10.2%)
- Definite Nonfatal MI, n/total (%) (2 Rare Alleles, Prava arm): (3.9%)
- Fatal/Nonfatal MI (def & prob), n/total (%) (2 Rare Alleles, Prava arm): (6.9%)
- MI (Fatal/Nonfatal), n/total (%) (2 Rare Alleles, Prava arm): (6.9%)
- Nonfatal MI (def & prob), n/total (%) (2 Rare Alleles, Prava arm): (6.9%)
- Odds ratio pravastatin vs placebo (BCL2A1 hCV7509650, All Patients, Definite Nonfatal MI, 0 rare alleles): 0.55
- Odds ratio pravastatin vs placebo (BCL2A1 hCV7509650, All Patients, Definite Nonfatal MI, 1 rare allele): 1.09
- Odds ratio pravastatin vs placebo (BCL2A1 hCV7509650, All Patients, Definite Nonfatal MI, 2 rare alleles): 0.35
- Odds ratio pravastatin vs placebo (BCL2A1 hCV7509650, All Patients, Fatal/Nonfatal MI (def & prob), 0 rare alleles): 0.51
- Odds ratio pravastatin vs placebo (BCL2A1 hCV7509650, All Patients, Fatal/Nonfatal MI (def & prob), 1 rare allele): 1.00
- Odds ratio pravastatin vs placebo (BCL2A1 hCV7509650, All Patients, Fatal/Nonfatal MI (def & prob), 2 rare alleles): 0.46
- Odds ratio pravastatin vs placebo (BCL2A1 hCV7509650, All Patients, MI (Fatal/Nonfatal), 0 rare alleles): 0.53
- Odds ratio pravastatin vs placebo (BCL2A1 hCV7509650, All Patients, MI (Fatal/Nonfatal), 1 rare allele): 0.99
- Odds ratio pravastatin vs placebo (BCL2A1 hCV7509650, All Patients, MI (Fatal/Nonfatal), 2 rare alleles): 0.46
- Odds ratio pravastatin vs placebo (BCL2A1 hCV7509650, All Patients, Nonfatal MI (def & prob), 0 rare alleles): 0.52
- Odds ratio pravastatin vs placebo (BCL2A1 hCV7509650, All Patients, Nonfatal MI (def & prob), 1 rare allele): 1.09
- Odds ratio pravastatin vs placebo (BCL2A1 hCV7509650, All Patients, Nonfatal MI (def & prob), 2 rare alleles): 0.56
- Cardiovascular Mortality, n/total (%) [1]: (4.0%)
- Fatal Atherosclerotic Cardiovascular Disease, n/total (%) [1]: (4.0%)
- Fatal Coronary Heart Disease, n/total (%) [1]: (3.5%)
- Fatal/Nonfatal Atherosclerotic CV Disease, n/total (%) [1]: (34.4%)
- Total Coronary Heart Disease Events, n/total (%) [1]: (30.5%)
- Total Mortality, n/total (%) [1]: (6.0%)
- Cardiovascular Mortality, n/total (%) [2]: (2.5%)
- Fatal Atherosclerotic Cardiovascular Disease, n/total (%) [2]: (2.2%)
- Fatal Coronary Heart Disease, n/total (%) [2]: (2.2%)
- Fatal/Nonfatal Atherosclerotic CV Disease, n/total (%) [2]: (29.9%)
- Total Coronary Heart Disease Events, n/total (%) [2]: (25.1%)
- Total Mortality, n/total (%) [2]: (4.0%)
- Odds ratio pravastatin vs placebo (CCL4 hCV12120554, All Patients, Cardiovascular Mortality, 0 rare alleles): 1.30
- Odds ratio pravastatin vs placebo (CCL4 hCV12120554, All Patients, Cardiovascular Mortality, 1 rare allele): 0.31
- Odds ratio pravastatin vs placebo (CCL4 hCV12120554, All Patients, Fatal Atherosclerotic Cardiovascular Disease, 0 rare alleles): 1.30
- Odds ratio pravastatin vs placebo (CCL4 hCV12120554, All Patients, Fatal Atherosclerotic Cardiovascular Disease, 1 rare allele): 0.28
- Odds ratio pravastatin vs placebo (CCL4 hCV12120554, All Patients, Fatal Coronary Heart Disease, 0 rare alleles): 1.28
- Odds ratio pravastatin vs placebo (CCL4 hCV12120554, All Patients, Fatal Coronary Heart Disease, 1 rare allele): 0.31
- Odds ratio pravastatin vs placebo (CCL4 hCV12120554, All Patients, Fatal/Nonfatal Atherosclerotic CV Disease, 0 rare alleles): 0.86
- Odds ratio pravastatin vs placebo (CCL4 hCV12120554, All Patients, Fatal/Nonfatal Atherosclerotic CV Disease, 1 rare allele): 0.55
- Odds ratio pravastatin vs placebo (CCL4 hCV12120554, All Patients, Total Coronary Heart Disease Events, 0 rare alleles): 0.87
- Odds ratio pravastatin vs placebo (CCL4 hCV12120554, All Patients, Total Coronary Heart Disease Events, 1 rare allele): 0.55
- Odds ratio pravastatin vs placebo (CCL4 hCV12120554, All Patients, Total Mortality, 0 rare alleles): 1.17
- Odds ratio pravastatin vs placebo (CCL4 hCV12120554, All Patients, Total Mortality, 1 rare allele): 0.40
- Total Coronary Heart Disease Events, n/total (%) (CCL11 hCV7449808, All Patients, 0 Rare Alleles, Prava, n/total 310/1025): (30.2%)
- Fatal/Non-fatal Atherosclerotic CV Disease, n/total (%) (CCL11 hCV7449808, All Patients, 0 Rare Alleles, Prava, n/total 359/1025): (35.0%)
- Hosp. for Cardiovascular Disease, n/total (%) (CCL11 hCV7449808, All Patients, 0 Rare Alleles, Prava, n/total 423/1025): (41.3%)
- Total Cardiovascular Disease Events, n/total (%) (CCL11 hCV7449808, All Patients, 0 Rare Alleles, Prava, n/total 436/1025): (42.5%)
- Total Coronary Heart Disease Events, n/total (%) (CCL11 hCV7449808, All Patients, 1 Rare Allele, Prava, n/total 127/448): (28.3%)
- Fatal/Non-fatal Atherosclerotic CV Disease, n/total (%) (CCL11 hCV7449808, All Patients, 1 Rare Allele, Prava, n/total 139/448): (31.0%)
- Hosp. for Cardiovascular Disease, n/total (%) (CCL11 hCV7449808, All Patients, 1 Rare Allele, Prava, n/total 176/448): (39.3%)
- Total Cardiovascular Disease Events, n/total (%) (CCL11 hCV7449808, All Patients, 1 Rare Allele, Prava, n/total 181/448): (40.4%)
